Assay results taken from article PMC5760651, “Peptidomimetic blockade of MYB in acute myeloid leukemia” (Nature Communications, 2018).
Non-standard residues stand in square brackets, D forms with d. Residues, ends and D or L forms follow the SMILES beside them.

Tests used:
MV-411 cells [1] = test: H3K27Ac ChIP-PCR at the BCL2 enhancer; format: cell-based, human; conditions: 20 μM, 24 h, ChIP-qPCR, compared to TG3 or untreated control, p = 8.6e-3
Procedure: Cross-linking was ended by the addition of 1/20 volume of 2.5 M Glycine for 5 min at room temperature followed by cell lysis and sonication ([…] Covaris sonicator) to obtain 100- to 500-bp chromatin fragments. H3K27Ac Rabbit polyclonal antibody (Abcam, #4729) was conjugated to Protein A and G Dynabeads per manufacturer's instructions (Thermo Fischer Scientific). Lysates were incubated overnight at 4 °C with antibody-conjugated beads in suspension. Precipitates were then washed sequentially with cold washing solution (1% NP-40, […], 50 mM Hepes-KOH, pH 7.6, 500 mM LiCl, 0.7% Na-Deoxycholate) and then washing solution (50 mM Tris-HCL, pH 8.0, 10 mM EDTA, 50 mM NaCl), then eluted in elution buffer (50 mM Tris-HCL, pH 8.0, 10 mM EDTA, 1% SDS). Reversal of crosslinks in elution buffer overnight at 65 °C followed by digestion of RNA and protein using RNase (Roche, Catalog No. 111119915-001) and Proteinase K (Roche, Catalog No. 03115828001). DNA purification was performed using PureLink PCR Purification Kit per manufacturer's protocol (Invitrogen). qPCR was performed as described below.

MV-411 and MOLM-13 cells = test: qRT-PCR of BCL2 mRNA expression; format: cell-based, human; conditions: 20 μM, 6 h
Procedure: RNA was isolated using Trizol reagent according to the manufacturer’s instructions (Life Technologies). Complementary DNA was synthesized using the SuperScript III First-Strand Synthesis system according to the manufacturer’s instructions (Invitrogen). Quantitative real-time PCR was performed using the KAPA SYBR FAST PCR polymerase with 20 ng template and 200 nM primers, according to the manufacturer’s instructions (Kapa Biosystems, Wilmington, MA, USA). PCR primers are listed in Supplementary Table 4. Ct values were calculated using ROX normalization using the ViiA 7 software (Applied Biosystems).

MV-411 cells [2] = test: Growth and survival of MV-411 cells with ectopic BCL2 (MIG-BCL2) or empty MIG vector; format: cell-based, human; conditions: 20 μM
Procedure: Cells were resuspended and plated at a concentration of 2 × 10^5 cells in 200 μl in 96-well tissue culture plates. Media with peptides was replaced every 48 h. To assess the number of viable cells, cells were resuspended in PBS and 10 µl of suspension was mixed in a 1:1 ratio with 0.4% Trypan Blue (Thermo Fisher) and counted using a hemacytometer (Hausser Scientific, Horsham, PA, USA). To assess viability using an ATP-based assay, cell viability was assessed using the CellTiter-Glo Luminescent Viability assay, according to the manufacturer’s instructions (Promega). Luminescence was recorded using the Infinite M1000Pro plate reader using integration time of 250 ms (Tecan).
The MIG-BCL2 vector was packaged using pUMVc and pCMV-VSVG vectors in HEK 293T cells and the FuGENE 6 transfection reagent, according to manufacturer’s instructions (Promega). Virus supernatant was collected at 48 and 72 h post transfection, pooled, filtered and stored at −80 °C. Cells were transduced with virus particles at a multiplicity of infection of 1 by spin inoculation for 90 min at 3500 rpm at 35 °C in the presence of 8 μg/ml hexadimethrine bromide. Two days after transduction, cells were isolated using fluorescence-activated cell sorting (FACSAria III, BD Bioscience, San Jose, CA, USA).

[3] = system: primary patient-derived MLL-rearranged leukemia cells in NSG mice; test: Patient-derived MLL-rearranged leukemia xenograft, treatment 3 days post transplantation, survival; format: in vivo, mouse
Procedure: All mouse experiments were carried out in accordance with the Memorial Sloan Kettering Institutional Animal Care and Use Committee. For toxicity studies, female C57BL/6J mice (The Jackson Laboratory, Bar Harbor, Maine, USA) were treated with MYBMIM peptide suspended in PBS and administered daily through intraperitoneal injection at a dose of 25 mg/kg for a total of 7 days. Mice were sacrificed at the end of treatment for hematologic, biochemical and histologic analyses. For pharmacokinetic studies, C57BL/6J mice (The Jackson Laboratory, Bar Harbor, Maine, USA) were treated with a single IP injection of 25 mg/kg BIO-MYBMIM, and blood plasma was collected 30 min, 2 h, 4 h, and 24 h post-injection. Quantification of BIO-MYBMIM was measured using the Quant-Tag Biotin kit (Vector Labs, cat. # BDK-2000) following the manufacturer instructions. For patient-derived xenografts, two hundred thousand primary AML MLL-rearranged leukemia cells were suspended in […] of PBS and transplanted via tail vein injection into 8-week-old sublethally irradiated (200 rad) female NOD.Cg-Prkdc(scid)Il2rg(tm1Wjl)/SzJ mice (The Jackson Laboratory, Bar Harbor, Maine, USA). […] Mice were treated from days 3–17 of this study for a total of 14 days and then monitored daily with clinical examination for survival analysis.

## CC[C@@H](C)[C@@H](NC(=O)[C@@H](CCCCN)NC(=O)[C@@H](CCC(=O)O)NC(=O)[C@@H](CC(C)C)NC(=O)[C@@H](CCC(=O)O)NC(=O)[C@@H](CC(C)C)NC(=O)[C@@H](CC(C)C)NC(=O)[C@@H](CC(C)C)NC(=O)[C@@H](CCSC)NC(=O)[C@@H](CO)NC(=O)[C@H](NC(=O)[C@@H](CCC(=O)O)NC(=O)[C@@H](CC(N)=O)NC(=O)[C@@H](CCC(=O)O)NC(=O)[C@@H](CC(C)C)NC(=O)[C@@H](CCCCN)NC(C)=O)[C@H](C)O)C(=O)N[C@H](CCCNC(=N)N)C(=O)N[C@H](CCCCN)C(=O)NCC(=O)NCC(=O)N[C@H](CCCNC(=N)N)C(=O)N[C@H](CCCNC(=N)N)C(=O)N[C@H](CCCNC(=N)N)C(=O)N[C@H](CCC(N)=O)C(=O)N[C@H](CCCNC(=N)N)C(=O)N[C@H](CCCNC(=N)N)C(=O)N[C@H](CCCCN)C(=O)N[C@H](CCCCN)C(=O)N[C@H](CCCNC(=N)N)C(=O)NCC(=O)N[C@H](Cc1ccc(O)cc1)C(N)=O [MYBMIM] (Ac-[dK][dL][dE][dN][dE][dT][dS][dM][dL][dL][dL][dE][dL][dE][dK][dI][dR][dK]GG[dR][dR][dR][dQ][dR][dR][dK][dK][dR]G[dY]-NH2)
MV-411 cells [1]
  H3K27Ac at the BCL2 enhancer: significant albeit incomplete reduction
MV-411 and MOLM-13 cells
  BCL2 expression downregulation: more than two-fold
MV-411 cells [2]; p = 0.003
  Cell growth and survival of mock-treated and MIG empty vector control transduced MV-411 cells: significant reduction of cell growth and survival
MV-411 cells [2]; MV-411 MIG-BCL2 cells
  MYBMIM-induced apoptosis in cells ectopically overexpressing BCL2: largely, though not completely, rescued
[3]; NSG mice, 25 mg/kg IP twice daily, 14 days from 3 days post-transplantation, n = 15 per group, p = 3.8e-3 log-rank
  Leukemia progression and survival: significantly delayed leukemia progression and extended survival
[3]; leukemia cells from moribund MYBMIM-treated mice vs vehicle, n = 10 per group, p < 0.0001 log-rank
  Disease latency in secondary transplant recipients: significantly delayed disease latency
